This note sets out measurements from publication PMC8206089, “Split NanoLuc technology allows quantitation of interactions between PII protein and its receptors with unprecedented sensitivity and reveals transient interactions” (Scientific Reports, 2021).

For test [1], the target named is T1, NAGK-SmBiT in complex with PII-LgBiT (ligand on NAGK) (Synechocystis sp. PCC 6803, UniProt P73326).
T1 construct: gene argB; hexameric NAGK with N-terminal His6, C-terminal 16-aa linker and SmBiT; PII trimer with C-terminal Strep-tag and LgBiT; both from E. coli Lemo21; with Nitrogen regulatory protein P-II
T1 sequence (P73326 whole entry): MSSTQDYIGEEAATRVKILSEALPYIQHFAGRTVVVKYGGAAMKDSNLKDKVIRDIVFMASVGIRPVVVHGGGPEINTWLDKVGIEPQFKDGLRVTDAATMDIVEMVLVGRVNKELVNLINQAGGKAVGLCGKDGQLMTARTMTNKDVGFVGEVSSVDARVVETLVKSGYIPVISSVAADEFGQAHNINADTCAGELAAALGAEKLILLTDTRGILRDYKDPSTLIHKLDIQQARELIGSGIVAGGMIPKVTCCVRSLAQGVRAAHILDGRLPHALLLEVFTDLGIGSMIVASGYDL
T1 sequence (Q55247 whole entry partner): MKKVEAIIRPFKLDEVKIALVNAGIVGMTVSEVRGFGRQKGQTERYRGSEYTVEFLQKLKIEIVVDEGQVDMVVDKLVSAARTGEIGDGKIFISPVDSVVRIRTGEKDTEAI
In words: NanoBiT luminescence, Arg titration of PII-NAGK complex. The format is binding. Conditions: 2 mM ATP or 1 mM ATP/1 mM ADP; allosteric; pH 7.6, 2 mM MgCl2, 30 °C.

Test [2] deals with T1, NAGK-SmBiT in complex with PII-LgBiT (ligand on NAGK). Kind of test: NanoBiT luminescence, stimulation of PII-NAGK complex formation. Conditions: 0-50 mM NAG, 2 mM ATP; 10 pM PII-LgBiT, 5 nM NAGK-SmBiT; pH 7.6, 2 mM MgCl2, 30 °C. Format: binding.

In the case of `N=C(N)NCCC[C@H](N)C(=O)O` [Arg], in test [1], the “NanoBiT luminescence, Arg titration of PII-NAGK complex” value was “arginine was titrated to PII-LgBiT-NAGK-SmBiT complexes and luminescence was recorded”.

For `CC(=O)N[C@@H](CCC(=O)O)C(=O)O` [NAG], the “NanoBiT luminescence, stimulation of PII-NAGK complex formation” value in test [2] is “increasing NAG concentrations caused a dramatic increase in PII-NAGK interaction”.
